The target of assay [1] is T1, human α-2C receptor (Homo sapiens, UniProt P18825).
T1 construct: expressed in transfected cells; host or cells: PC12 cells (retroviral vector pCL BABE Puro)
T1 sequence (P18825 1-462): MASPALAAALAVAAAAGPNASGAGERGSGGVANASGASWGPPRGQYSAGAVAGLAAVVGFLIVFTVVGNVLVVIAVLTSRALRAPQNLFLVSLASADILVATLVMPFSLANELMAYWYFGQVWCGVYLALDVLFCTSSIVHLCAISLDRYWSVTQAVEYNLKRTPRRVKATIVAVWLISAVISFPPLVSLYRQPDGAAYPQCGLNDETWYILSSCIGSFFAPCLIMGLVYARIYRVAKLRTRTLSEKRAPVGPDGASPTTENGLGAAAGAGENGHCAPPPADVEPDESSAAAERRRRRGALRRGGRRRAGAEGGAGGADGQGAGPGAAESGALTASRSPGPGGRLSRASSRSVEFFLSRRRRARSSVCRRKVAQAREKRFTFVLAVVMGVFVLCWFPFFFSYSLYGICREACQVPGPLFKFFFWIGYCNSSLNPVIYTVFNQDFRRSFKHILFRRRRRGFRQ
As to the kind of experiment: Inhibition of forskolin-induced cAMP accumulation in PC12 cells expressing human α-2C receptor. As to conditions: percent efficacy relative to brimonidine. The class given is cell-based. As for the experimental part:
(§1) The human α-2A and α-2C receptor supernatants were added, in varying amounts, to naive PC12 cells, which were then incubated for 48 hours. The transduced cell populations were replated at a lower density and grown in media containing 100 ug/ml puromycin.
(§2) Intracellular cAMP measurement was performed as follows. PC12 cells stably expressing the human α-2A or human α-2C adrenergic receptors were plated in 96-well poly-D-lysine coated plates at a density of 30,000 cells per well in 100 μl DMEM supplemented with 10% horse serum, 5% heat inactivated fetal bovine serum, 1% antibiotic-antimycotic and 100 μg/ml puromycin. Cells were grown overnight at 37° C. and 5% CO2. Cells were dosed by adding an equal volume of media containing IBMX (to a final concentration of 1 mM), forskolin (to a final concentration of 10 μM) and the appropriate drug dilution (to a final concentration of between 10^−5 M and 10^−12 M). After a 10 minute incubation, the media was aspirated and the cells lysed with 200 μl lysis buffer (Amersham Biosciences; Piscataway, N.J.). Plates were stored at −20° C. for up to 24 hours prior to assay. Intracellular cAMP was determined using the Biotrak cAMP enzyme immunoassay system (Amersham Biosciences) according to the manufacturer's instructions. Plates were read on a plate reader at 450 nm.
In general terms: Cyclic AMP is a second messenger, typically raised through Gs and lowered through Gi signalling.

Assay [2] addresses T2, human α-2A receptor (Homo sapiens, UniProt P08913).
T2 sequence (P08913 1-465): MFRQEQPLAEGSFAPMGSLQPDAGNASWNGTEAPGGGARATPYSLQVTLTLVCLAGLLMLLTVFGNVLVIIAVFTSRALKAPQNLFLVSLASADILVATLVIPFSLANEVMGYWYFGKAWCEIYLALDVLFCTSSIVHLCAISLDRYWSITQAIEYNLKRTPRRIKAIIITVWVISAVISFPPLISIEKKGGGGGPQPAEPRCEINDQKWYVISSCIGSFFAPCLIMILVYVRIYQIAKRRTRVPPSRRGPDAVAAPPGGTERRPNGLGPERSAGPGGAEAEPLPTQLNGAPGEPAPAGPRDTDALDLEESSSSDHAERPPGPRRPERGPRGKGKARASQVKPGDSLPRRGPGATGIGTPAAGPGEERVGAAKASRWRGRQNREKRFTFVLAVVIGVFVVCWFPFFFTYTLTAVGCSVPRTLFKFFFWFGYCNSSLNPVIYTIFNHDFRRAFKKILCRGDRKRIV
The note with it: percent efficacy relative to brimonidine. As for the experimental part:
as §1, §2

Assay [3] deals with mice. As to the kind of experiment: NMDA-induced tactile hypersensitivity in mice. The class given is in vivo, mouse. The note with it: result in words. Here is the method: Spinal drug injections were performed as follows. […] Briefly, a sterile 30-gauge ½ inch needle attached to a microsyringe was inserted between the L5 and L6 vertebrae. The mouse was held firmly by the pelvic girdle in one hand, while the syringe was held in the other hand at an angle of approximately 20° above the vertebral column. The needle was inserted into the tissue to one side of the L6 spinous process, into the groove between the spinous and transverse processes. The needle angle was decreased to about 10°, and the needle slowly advanced forward into the intervertebral space until a pop was felt and there was a visible serpentine tail movement. Compounds were slowly injected in the subarachnoid space in a volume of 5 μl. Each compound was tested at multiple doses. The minimal efficacious dose was used for all subsequent experiments.
Sensitivity to light touch was quantified by scoring the response of mice to light stroking of their flanks with a small paintbrush, which is not normally painful. […] Statistical calculations of significance for in vivo studies were done using a two-tailed Students t-test.

Data on two compounds can be found in patent publication US20130217694A1, “METHOD OF REDUCING THE SEVERITY OF INFLAMMATORY DERMATOLOGICAL CONDITIONS” (Allergan, Inc.., priority 2003, published 2013).

Consider `Brc1c(NC2=NCCN2)ccc2nccnc12` [Brimonidine, 5-bromo-6-(2-imidazolin-2-ylamino)quinoxaline], for which the “human α2C % E” value in assay [1] is 93%. In addition, the “human α2A % E” value in assay [2] is recorded as 91%. The “inhibition of NMDA-induced tactile hypersensitivity” value is on record as “complete inhibition of tactile hypersensitivity” in assay [3] (wildtype mice), “neither clonidine nor brimonidine inhibited” in assay [3] (α-2A knockout mice) and “complete inhibition of tactile hypersensitivity” in assay [3] (α-2C knockout mice).
On to `Clc1cccc(Cl)c1N=C1NCCN1` [Clonidine], for which the “human α2C % E” value in assay [1] was 84%. The “human α2A % E” value in assay [2] came out at 94%. Further, the “inhibition of NMDA-induced tactile hypersensitivity” value was “complete inhibition of tactile hypersensitivity” in assay [3] (wildtype mice), “neither clonidine nor brimonidine inhibited” in assay [3] (α-2A knockout mice) and “complete inhibition of tactile hypersensitivity” in assay [3] (α-2C knockout mice).
